Reference: patent US20120046331A1, “Antifungal Agents and Uses Thereof” (priority 2010, published 2012)
≈ marks a conversion by molar mass, not a printed value. Entries after “also recorded” stand apart in the source; their conditions may differ. Read-outs that look alike come from different tables or passages of the source.

Key:
T. rubrum = assay: MIC testing, modified CLSI M38-A2 for dermatophytes (Example 2); assay type: cell-based, Trichophyton rubrum; conditions: for MIC50: lowest concentration to inhibit 50% of the strains tested, n = 20
T. tonsurans = assay: as above; assay type: cell-based; conditions: n = 5 strains; for MIC50 / MIC90: Trichophyton tonsurans
Method: (§1) MIC testing was performed according to the modification of the CLSI M38-A2 standard for dermatophytes developed at the Center (CLSI. Reference Method for Broth Dilution Antifungal Susceptibility Testing of Filamentous Fungi; Approved Standard-Second Edition. CLSI document M38-A2 [ISBN 1-56238-668-9]. CLSI, 940 West Valley Road, Suite 1400, Wayne, Pa. 19087-1898 USA, 2008; Ghannoum M A, et al. Intra- and Interlaboratory Study of a Method for Testing the Antifungal Susceptibilities of Dermatophytes. 2004 J Clin Microbiol 42:(7): 2977-2979). Compound 8 and fluconazole were tested in combination using a checkerboard microdilution method. The interaction between Compound 8 and fluconazole was determined by FIC Index, or Fractional Inhibitory Concentration Index, which assigns a numerical value to the interaction of the two antifungals.

T. mentagrophytes = assay: as above; assay type: cell-based; conditions: n = 5 strains; for MIC50 / MIC90: Trichophyton mentagrophytes
Method: as §1

[1] = system: panel of clinical isolates of 5 common dermatophytic fungi; assay: Checkerboard combination testing, whole panel (Example 1); assay type: cell-based; conditions: terbinafine alone; reason why synergy could not be determined
Method: This example describes the in vitro activity of combinations of compounds according to the present invention and antifungal agents against a collection of dermatophytic fungal pathogens. Antifungal susceptibility testing was adapted from the CLSI M38-A broth microdilution method for dermatophytes (NCCLS-M38-A2 2008). Combination testing was performed by checkerboard method (with compound 8 in combination with fluconazole, itraconazole or terbinafine). A total of 30 isolates of 5 different fungal species were tested in the combination test: 6 isolates each of Trichophyton tonsurans, Trichophyton rubrum, Epidermophyton floccosum, Trichophyton mentagrophytes and Microsporum canis. Clinical isolates were obtained by the Laboratory of Dr. M. Ghannoum at Case Western University.
Synergy was assessed using the fractional inhibitory concentration (FIC), an interaction coefficient, with the following definitions: […]

[2] = Trichophyton rubrum, read-out: MIC50
[3] = Trichophyton rubrum, n = 20 strains

MIC50 (T. rubrum; [2]) [µg/mL] | MIC90 (T. rubrum; [3]) [µg/mL] | MIC50 (T. rubrum) [µg/mL] | MIC Range (T. rubrum; n = 20 strains) [µg/mL] | MIC50 (T. tonsurans) [µg/mL] | MIC90 (T. tonsurans) [µg/mL] | MIC Range (T. tonsurans) [µg/mL] | MIC50 (T. mentagrophytes) [µg/mL] | MIC90 (T. mentagrophytes) [µg/mL] | MIC Range (T. mentagrophytes) [µg/mL] | Compound | Potency (MIC) of terbinafine, in words [1]
1 (≈ 3.27 µM) | 1 (≈ 3.27 µM) | 1 (≈ 3.27 µM) | 0.25 to 4.0 | 2 | 4 | 1.0 to 4.0 | 16 | 16 | 2.0 to 16.0 | OC(Cn1cncn1)(Cn1cncn1)c1ccc(F)cc1F [Fluconazole, fluconazole] | –
0.016 (≈ 0.0549 µM) | 8 (≈ 27.5 µM) | – | – | 0.002 | 0.002 | 0.001 to 0.016 | 0.008 | 0.016 | 0.004 to 0.016 | CN(C/C=C/C#CC(C)(C)C)Cc1cccc2ccccc12 [Terbinafine, terbinafine] | extremely low MIC; also recorded: † = synergy could not be determined because of the high potency (extremely low MIC) of terbinafine
